Data on 30 compounds can be found in patent US20240254138A1, “TRICYCLIC PYRIMIDINES AS CYCLIN-DEPENDENT KINASE 7 (CDK7) INHIBITORS” (JANSSEN PHARMACEUTICA NV, priority 2021, published 2024).

Assay [1] concerns RNA Polymerase II Serine 5 phosphorylation in A549 cells overexpressing CDK7-mutant (C312S). The experiment in a line: Imaging-based cellular RNA PolII Ser5 phosphorylation assay in A549 cells overexpressing CDK7-mutant (C312S). The assay is classed as cell-based, human. The note with it: RNA PolII Ser5 phosphorylation, averaged over all measurements; for IC50: Homo sapiens, A549, A549 cells overexpressing CDK7-mutant (C312S), read-out: CDK7_A549 mutant hCDK7(pIC50) (converted); for CDK7_A549 mutant hCDK7(pIC50): A549 cells overexpressing CDK7-mutant (C312S). The text has this:
(§1) To evaluate inhibition of CDK7 kinase activity, a 384-well automated imaging assay was used. This assay detects Serine 5 phosphorylation on a unique heptapeptide sequence in the C-terminal domain of Rpb1 subunit of RNA polymerase II, the downstream substrate of CDK7. This heptapeptide sequence is repeated up to 52 times in the CTD of Rpb1.
(§2) A549 adenocarcinoma human alveolar basal epithelial cells (ATCC, CCL-185), rabbit Phospho-Rpb1 CTD (Ser5) antibody (D9N51 (Cell Signaling Technology)), DMEM (Sigma), Fetal Bovine Serum (Biowest), L-glutamine (Sigma), Penicillin/Streptomycin (Life Technologies), Sodium Pyruvate (Sigma), Hepes (Sigma), poly-D-lysine coated μclear 384 black plates (Greiner), formaldehyde (PolySciences), D-PBS (Sigma), Methanol (Sigma), Alexa Fluor 488 goat anti rabbit IgG secondary antibody (Life Technologies), HCS CellMask™ Deep Red stain (Life Technologies), Hoechst 33258 (Invitrogen).
(§3) RNA Polymerase II Serine 5 phosphorylation was detected using a specific rabbit Phospho-Rpb1 CTD (Ser5) antibody. A549 adenocarcinoma human alveolar basal epithelial cells were seeded in 20 μl medium (DMEM supplemented with 1% Fetal Bovine Serum (heat inactivated 30′ 56° C.), 2 mM L-glutamine, 50 U/ml penicillin 50 μg/ml streptomycin, 1 mM sodium pyruvate and 50 mM hepes) at 1000 cells/well and cultured in poly-D-lysine coated μclear 384 black plates for 20 hours at 37° C. and 5% CO2.
(§4) After incubation cells were challenged with compound for 3 hours at 37° C. and 5% CO2. DMSO was used as high control and as low control 10 μM of the following reference compound was used:
(§5) 40 nl of test compounds and controls were spotted in cell plates using Echo Liquid Handler (Echo 550, Labcyte). Incubation was followed by 20 minutes fixation with 20 μl 10% formaldehyde at room temperature. Medium/formaldehyde solution was removed, plates were washed 3 times with 30 μl D-PBS (w/o Ca^2+ and Ma^2+) and permeabilization was done by adding 20 μl ice cold methanol for 20 minutes. Cells were washed again 3 times with 30 μl D-PBS and 20 μl blocking buffer (25 ml fetal bovine serum in 500 ml D-PBS) was added for 1 hour.
(§6) After removing blocking buffer 20 μl 1/1000 primary antibody rabbit Phospho-Rpb1 CTD (Ser5) antibody was added which binds to the phosphorylated Serine5 of the heptapeptide sequences in the CTD of Rpb1. Primary antibody was removed, and plates were washed 3 times with 30 μl D-PBS followed by addition of 20 μl 1/2000 Alexa Fluor 488 goat anti rabbit IgG secondary antibody for final detection of Phospho-Rpb1 CTD (Ser5) together with 1/5000 HCS CellMask™ Deep Red stain for membrane staining and 1/5000 Hoechst 33258 for nucleus staining. Last, plates were washed 2 times with 30 μl D-PBS and wells were filled with 40 μL D-PBS, plates were sealed (Thermowell sealing tape) and stored at 4° C. until reading. Plates were read with Opera Phenix (Perkin Elmer) with 10× air objective. Data were calculated and analyzed in Phaedra.
(§7) IC50 values were calculated using the following formula: […]
(§8) Average value of all HC's and all LC's are used for normalizations.
(§9) A best-fit curve is fitted by a minimum sum of squares method to the plot of % Control vs. compound concentration. From this an IC50 value can be obtained. An estimate of the slope of the plot in terms of the Hill coefficient is also obtained.
In parallel this assay was performed in A549 cells overexpressing CDK7-mutant (C312S) to evaluate the effect of the covalent bond on potency and to screen for potential off-target effects. Mutation of Cysteine to Serine (C312S), a less nucleophilic amino acid, prevents CDK7 inhibitors from covalently binding to CDK7 and from inhibiting CDK7 activity in an irreversible manner. A stably transduced A549 cell pool was generated that overexpresses CDK7 mutant (C312S), but also expresses endogenous CDK7-WT. Covalent binders targeting the cysteine at position 312 will show a shift in potency in A549 cells overexpressing mutant C312S CDK7.

For assay [2], the system named is RNA Polymerase II Serine 5 phosphorylation (Rpb1 CTD, downstream substrate of CDK7) in A549 cells. The experiment in a line: Imaging-based cellular RNA PolII Ser5 phosphorylation assay in A549 cells. The assay is classed as cell-based, human. The note with it: wild-type CDK7, RNA PolII Ser5 phosphorylation, averaged over all measurements; for IC50: Homo sapiens, A549, A549 cells, read-out: CDK7_A549 Wild-type CDK7 (pIC50) (converted); for CDK7_A549 Wild-type CDK7 (pIC50): A549 cells.
Excerpt: as §1, §2, §3, §4, §5, §6, §7, §8, §9

For the compound `C=CC(=O)N1CC[C@@H](N2CC(c3cc4c(c(C#N)n3)OCc3c(N5CCOCC5)ccnc3N4)C2)C1` (single isomer, unassigned) [Compound 474], the IC50 was more than 10 µM in assay [1] and 0.575 µM in assay [2].
The like results for `CC#CC(=O)N1CC(N2CCC(c3cc4c(c(C#N)n3)O[C@H](C)c3c(N5CCOCC5)ccnc3N4)CC2)C1` (single isomer, unassigned) [Compound 481] were, in that order, more than 10 µM and 3.02 µM.
The like results for `CC#CC(=O)N1CC(N2CCC(c3cc4c(c(C#N)n3)O[C@@H](C)c3c(N5CCOCC5)ccnc3N4)CC2)C1` (single isomer, unassigned) [Compound 485] were, in that order, more than 10 µM and 0.12 µM.
The like results for `C#Cc1cc(C2CN([C@H]3CCN(C(=O)C=C)C3)C2)cc2c1OCc1c(-c3cnn(C)c3)ccnc1N2` (single isomer, unassigned) [Compound 492] were, in that order, 9.55 µM and 0.126 µM.
Take `CC#CC(=O)N1CC[C@H](N2CC(c3cc4c(c(C)n3)O[C@@H](C)c3c(N5CCOCC5)ccnc3N4)C2)C1` (single isomer, unassigned) [Compound 512]: the IC50 in assay [1] is more than 10 µM. Besides, in assay [2], the “CDK7_A549 Wild-type CDK7 (pIC50)” value came to 7.56.
As to `CC#CC(=O)N1CC[C@@H](N2CC(c3cc4c(c(C)n3)O[C@H](C)c3c(N5CCOCC5)ccnc3N4)C2)C1` (single isomer, unassigned) [Compound 513], in assay [1], the IC50 is more than 10 µM. The “CDK7_A549 Wild-type CDK7 (pIC50)” value in assay [2] was found to be 6.36.
With `CC#CC(=O)N1CC[C@@H](N2CC(c3cc4c(c(C)n3)O[C@@H](C)c3c(N5CCOCC5)ccnc3N4)C2)C1` (single isomer, unassigned) [Compound 515], the IC50 in assay [1] was 8.91 µM; in assay [2] it was approximately 0.0115 µM.
With `CC#CC(=O)N1CC[C@H](N2CC(c3cc4c(c(C)n3)O[C@H](C)c3c(N5CCOCC5)ccnc3N4)C2)C1` (single isomer, unassigned) [Compound 516], the IC50 in assay [1] was more than 10 µM. The “CDK7_A549 Wild-type CDK7 (pIC50)” value in assay [2] was found to be 5.68.
In the case of `CC#CC(=O)N1CC(N2CCC(c3cc4c(c(C)n3)O[C@H](C)c3c(N5CCOCC5)ccnc3N4)CC2)C1` (single isomer, unassigned) [Compound 524], in assay [1], the “CDK7_A549 mutant hCDK7(pIC50)” value is less than 5. For the same compound, in assay [2], the “CDK7_A549 Wild-type CDK7 (pIC50)” value is 5.03.
The like results for `CC#CC(=O)N1CC[C@H](N2CC(c3cc4c(c(C)n3)O[C@H](C)c3c(N5CCOCC5)ccnc3N4)C2)C1` (single isomer, unassigned) [Compound 530] were, in that order, less than 5 and less than 5.
For the compound `CC#CC(=O)N1CC[C@@H](N2CC(c3cc4c(c(C)n3)O[C@H](C)c3c(N5CCOCC5)ccnc3N4)C2)C1` (single isomer, unassigned) [Compound 531], the “CDK7_A549 mutant hCDK7(pIC50)” value in assay [1] was less than 5. Besides, the “CDK7_A549 Wild-type CDK7 (pIC50)” value in assay [2] is less than 5.
In the case of `CC#CC(=O)N1CC[C@H](N2CC(c3cc4c(c(C)n3)O[C@@H](C)c3c(N5CCOCC5)ccnc3N4)C2)C1` (single isomer, unassigned) [Compound 533], the “CDK7_A549 mutant hCDK7(pIC50)” value in assay [1] is listed as less than 5. Also, in assay [2], the “CDK7_A549 Wild-type CDK7 (pIC50)” value was found to be 6.33.
As for `CC#CC(=O)N1CC(N2CCC(c3cc4c(c(C)n3)O[C@@H](C)c3c(-c5cnn(C)c5)ccnc3N4)CC2)C1` (single isomer, unassigned) [Compound 534], the IC50 in assay [1] was more than 10 µM; in assay [2] it was approximately 9.55 µM.
Take `CC#CC(=O)N1CCC(N2CCC(c3cc4c(c(C)n3)O[C@@H](C)c3c(N5CCOCC5)ccnc3N4)CC2)C1` (single isomer, unassigned) [Compound 535]: the IC50 in assay [1] is approximately 10 µM; in assay [2], 0.0631 µM.
The like results for `CC#CC(=O)N1CCC(N2CC(c3cc4c(c(C#N)n3)O[C@H](C)c3c(N5CCOCC5)ccnc3N4)C2)CC1` (single isomer, unassigned) [Compound 544] were, in that order, more than 10 µM and 2.95 µM.
For `CC#CC(=O)N1CCC(N2CC(c3cc4c(c(C#N)n3)O[C@@H](C)c3c(N5CCOCC5)ccnc3N4)C2)CC1` (single isomer, unassigned) [Compound 545], in that order: 2.82 µM and 0.117 µM.
For `C=CC(=O)N1CCC(Cc2ccc3c(c2)Nc2nccc(-c4cncc(C)c4)c2CO3)C1` (stereo not drawn) [Compound 5], in that order: more than 10 µM and more than 10 µM.
Take `C=CC(=O)N1CCC(Cc2ccc3c(c2)Nc2nccc(-c4cnccc4C)c2CO3)C1` (stereo not drawn) [Compound 6]: the IC50 in assay [1] was more than 10 µM; in assay [2] it was approximately 9.33 µM.
The like results for `C=CC(=O)N1CC(N2CCC(c3cc(C)c4c(c3)Nc3nccc(N5CCOCC5)c3CO4)CC2)C1` [Compound 20] were, in that order, more than 10 µM and 0.0589 µM.
As for `C=CC(=O)N1CC(N2CCC(c3cc(C)c4c(c3)Nc3nccc(N5CCOCC5)c3CO4)CC2)C1` [Compound 21], in assay [1], the “CDK7_A549 mutant hCDK7(pIC50)” value is less than 5. Also, in assay [2], the “CDK7_A549 Wild-type CDK7 (pIC50)” value came to 7.34.
Consider `C/C=C/C(=O)N1CC(N2CCC(c3ccc4c(c3)Nc3nccc(N5CCOCC5)c3CO4)CC2)C1` [Compound 106], for which the IC50 is more than 10 µM in assay [1] and approximately 10 µM in assay [2].
For `C=CC(=O)N1CCC(N2CC(c3ccc4c(c3C)Nc3nccc(C5CCOCC5)c3CO4)C2)CC1` [Compound 131], in that order: more than 10 µM and 6.61 µM.
The like results for `C#CCCN(C)C/C=C/C(=O)N1CC(N2CCC(c3cc(Cl)c4c(c3)Nc3nccc(N5CCOCC5)c3CO4)CC2)C1` [Compound 168] were, in that order, more than 10 µM and 0.0776 µM.
As to `C=CC(=O)N1CC(N2CCC(c3ccc4c(c3)Nc3nccc(C5CCOCC5)c3CO4)CC2)C1` [Compound 254], in assay [1], the “CDK7_A549 mutant hCDK7(pIC50)” value was less than 5. Moreover, the “CDK7_A549 Wild-type CDK7 (pIC50)” value in assay [2] turned out to be 6.97.
For the compound `C=CC(=O)N1CC(N2CCOC(c3ccc4c(c3)OCc3c(N5CCOCC5)ccnc3N4)C2)C1` (stereo not drawn) [Compound 266], the values for the IC50 in assay [1] and in assay [2] were more than 10 µM and approximately 10.2 µM, respectively.
For `CC#CC(=O)N1CC(N2CCC(c3cc4c(c(C)n3)OCc3c(-c5cnn(C)c5)ccnc3N4)CC2)C1` [Compound 276], in that order: more than 10 µM and 0.195 µM.
For `C=CC(=O)N1CC(c2nc(C)c(-c3cc4c(c(C)n3)OCc3c(N5CCOCC5)ccnc3N4)c(C)n2)C1` [Compound 280], in that order: more than 10 µM and 0.126 µM.
For `C=CC(=O)N1CCC(N2CC(c3cc4c(cn3)OC(C)(C)c3c(-c5cnn(C)c5)ccnc3N4)C2)CC1` [Compound 320], the IC50 in assay [1] and in assay [2] was more than 10 µM in each case.
For `CC(=O)N1CCC(N2CC(c3cc4c(c(C)n3)OCc3c(-c5cnn(C)c5)ccnc3N4)C2)CC1` [Compound 321], the IC50 in assay [1] was 8.71 µM; in assay [2] it was 9.33 µM.
`CC#CC(=O)N1CC(n2cc(-c3cc4c(c(C)n3)OCc3c(N5CCOCC5)ccnc3N4)cn2)C1` [Compound 346]: the IC50 is more than 10 µM in assay [1] and 0.191 µM in assay [2].
